Key:
[1] = target: T1, human phosphatase VHR, wild type, SEQ ID NO:2 (Homo sapiens, UniProt P51452); type: biochemical
T1 construct: fragment containing the entire VHR coding region; glutathione-S-transferase (GST), pGEX-KT (N, cleaved yes); made in house
Description: (§1) Production and purification of bacterially-expressed VHR. A 0.8 kB SalI-HinDIII fragment containing the entire VHR coding region was blunt-ended with DNA polymerase (Klenow fragment), and BamHI linkers were added. DNA was digested with BamHI, and inserted in-frame into the BamHI site of the pGEX-KT expression vector, described in Hakes et al., Anal. Biochem. 202:293-298 (1992), to produce pGEX-VHR. Plasmid pGEX-VHR was used to express VHR as a fusion protein with glutathione-S-transferase (GST). Expression and purification of GST-VHR was performed as described for a rat brain PTP. Guan et al. (Anal. Biochem. 1991). […] VHR protein, obtained by thrombin cleavage of the purified GST fusion protein, was used for phosphatase assays.
(§2) Phosphatase assays with purified VHR. Dephosphorylation of p-nitrophenylphosphate (pNPP) was performed as described previously. Tonks et al., J. Biol. Chem. 263:6731-6737 (1988).
(§3) Fischer et al. (1991); Hunter et al. (1989).

[2] = target: human phosphatase VHR as GST-VHR fusion protein (glutathione-S-transferase fusion, VHR SEQ ID NO:2) (Homo sapiens, UniProt P51452); settings: hydrolysis of pNPP, absorbance at 410 nm
Description: as §1, §2, §3

[3] = target: highly purified PDGF receptor (baculovirus-expressed)
[4] = target: human phosphatase VHR (clone 27 lysate, pCEV27) (Homo sapiens, UniProt P51452); settings: 3 mM sodium vanadate, 37 C, 30 minutes
Chain of human phosphatase VHR (clone 27 lysate, pCEV27) (P51452 whole entry): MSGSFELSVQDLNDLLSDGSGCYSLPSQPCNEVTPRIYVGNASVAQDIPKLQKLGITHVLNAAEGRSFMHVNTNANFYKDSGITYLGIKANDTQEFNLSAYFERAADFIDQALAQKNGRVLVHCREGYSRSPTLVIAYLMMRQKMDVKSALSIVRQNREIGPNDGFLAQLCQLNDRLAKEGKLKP
Description: Phosphatase assays with bacterial extracts. […] Cultures of E. coli strain Y1091 (50 ml), carrying either pCEV-bek, pCEV-lacZ (pCEV-lacZ vector without an insert), or pCEV27 were grown and induced with 1 mM IPTG as described. […] Cells were collected by centrifugation and lysed in 1 ml of buffer containing 50 mM HEPES, pH 7.4, 1% Triton X-100, and 1 mM phenylmethylsulfonyl fluoride. Lysates were sonicated twice for ten seconds each, clarified by centrifugation, and the supernatants were tested for phosphatase activity.
The reaction was stopped by boiling in sodium dodecyl sulfate polyacrylamide gel electrophoresis (SDS-PAGE) sample buffer, described by Laemmli, Nature 227:680-685 (1970), for three minutes. The Sample was divided into two equal aliquots, resolved by 6.5% SDS-PAGE, and transferred to Immobilon (Milipore).
Immunoblotting was performed with monoclonal anti-pTyr (Upstate Biotechnology, Inc.) or monoclonal anti-β-gal antibodies (Promega) as described previously.

T1 sequence (P51452 whole entry, the tested form may be a part): as the sequence (P51452 whole entry) above
Chain of human phosphatase VHR as GST-VHR fusion protein (glutathione-S-transferase fusion, VHR SEQ ID NO:2) (P51452 whole entry, the tested form may be a part): as the sequence (P51452 whole entry) above

## C=C1[C@@H](O)[C@@H]2O[C@]3(CC[C@H](/C=C/[C@@H](C)[C@@H]4CC(C)=C[C@@]5(O[C@H](C[C@@](C)(O)C(=O)O)CC[C@H]5O)O4)O3)CC[C@H]2O[C@@H]1[C@@H](O)C[C@H](C)[C@H]1O[C@@]2(CCCCO2)CC[C@H]1C [Okadaic acid]
[1]
  inhibitory effect on the enzyme activity (pNPP hydrolysis): no inhibitory effect

## O=[N+]([O-])c1ccc(OP(=O)(O)O)cc1 [pNPP, p-nitrophenylphosphate]
[2]
  Km (pNPP): in the micromolar range
[1]; compared with GST-VHR fusion, data not shown
  Km (pNPP) after cleavage of the VHR from GST with thrombin: unchanged

## [F-].[Na+] [sodium fluoride]
[1]
  inhibitory effect on the enzyme activity (pNPP hydrolysis): no inhibitory effect

## VHR (enzyme)
[3]
  Km of dephosphorylation (anti-pTyr/[125I]-protein A immunoblot, PhosphorImager): < 100 mM

## sodium vanadate
[1]
  inhibition of pNPP hydrolysis by the phosphatase: completely inhibited
[4]
  inhibition of the reduction of pTyr content of beta-gal-bek by clone 27 lysate: inhibited
